Earlier results on one molecule are cited in patent US5463127A, “Process for preparation of halohydroxypropyl-trialkylammonium halides” (The Dow Chemical Company, priority 1995, dated 1995).

For this data set the following is noted: aqueous solution.

Where two headings read alike, the source gives them in different places.

Take `CN(C)C` [Trimethylamine, trimethylamine]: the “pKa of Trimethylamine” value is 10.355 (0 °C.); 10.128 (10 °C.); 9.907 (20 °C.); 9.692 (30 °C.); 9.477 (40 °C.); 9.270 (50 °C.).
